# Measurements published in patent US20240247024A1, “INHIBITORS OF NICOTINAMIDE N-METHYL TRANSFERASE (NNMT)” (UNIVERSITEIT LEIDEN, priority 2021, published 2024).
# Like-named read-outs stand apart in the source and are kept apart here.
# Experiments:
# [1] = test system: A549 human lung cancer line; assay: MTT cell proliferation assay, A549; assay type: cell-based; conditions: for % of DMSO control at 100 μM, A549, 24 h: 24 h incubation; for % of DMSO control at 100 μM, A549, 48 h: 48 h incubation; for % of DMSO control at 100 μM, A549, 72 h: 72 h incubation
# Method: (§1) UROTsa immortalized human urothelium cell line, HSC-2 human oral cancer cell line, T24 human bladder cancer cell line and A549 human lung cancer line were purchased from the American Type Culture Collection (ATCC, Rockville, MD, USA), and cultured in DMEM/F12 medium, supplemented with 10% fetal bovine serum and 50 μg/ml gentamicin, at 37° C. in a humidified 5% CO2 incubator. For each compound tested, powder was dissolved in DMSO at 100 mM concentration. This stock solution was then diluted in culture medium to final concentration values ranging between 1 μM and 100 μM. For each sample, DMSO was kept constant at 0.1% final concentration. The day before starting treatment, cells were seeded in 96-well plates, at a density of 2000 cells/well. Cells were allowed to attach overnight and then incubated with compounds at different final concentrations, or with DMSO only, for 24, 48 and 72 hours. All experiments were performed in triplicate.
# (§2) Cell proliferation was determined using a colorimetric assay with 3-(4,5-dimethylthiazol-2-yl)-2,5-diphenyl tetrazolium bromide (MTT). The MTT assay measures the conversion of MTT to insoluble formazan by dehydrogenase enzymes of the intact mitochondria of living cells. Cell proliferation was evaluated by measuring the conversion of the tetrazolium salt MTT to formazan crystals upon treatment with compounds or DMSO only for 24, 48 and 72 hours. Briefly, cells were incubated for 2 hours at 37° C. with 100 μl fresh culture medium containing 5 μl of MTT reagent (5 mg/ml in PBS). The medium was removed and 200 μl isopropanol were added. The amount of formazan crystals formed correlated directly with the number of viable cells. The reaction product was quantified by measuring the absorbance at 540 nm using an ELISA plate reader. Experiments were repeated three times. Results were expressed as percentage of the control (control equals 100% and corresponds to the absorbance value of each sample at time zero) and presented as mean values±standard deviation of three independent experiments performed in triplicate.
# (§3) Data were analysed using GraphPad Prism software for Windows (GraphPad Software, San Diego, CA). Significant differences between groups were determined using the one-way analysis of variance (ANOVA). A p value <0.05 was considered as statistically significant.
# [2] = test system: T24 human bladder cancer cell line; assay: MTT cell proliferation assay, T24; assay type: cell-based; conditions: for % of DMSO control at 100 μM, T24, 24 h: 24 h incubation; for % of DMSO control at 100 μM, T24, 48 h: 48 h incubation; for % of DMSO control at 100 μM, T24, 72 h: 72 h incubation
# Method: as §1, §2, §3
# [3] = test system: HSC-2 human oral cancer cell line; assay: MTT cell proliferation assay, HSC-2; assay type: cell-based; conditions: for % of DMSO control at 100 μM, HSC-2, 24 h: 24 h incubation; for % of DMSO control at 100 μM, HSC-2, 48 h: 48 h incubation; for % of DMSO control at 100 μM, HSC-2, 72 h: 72 h incubation
# Method: as §1, §2, §3
# high-fat DIO mice = conditions: cited from earlier work
# NNMT [4] = molecular target: T1, NNMT (Homo sapiens, UniProt P40261); set-up: The enzymatic activity assays were performed using NNMT at a final concentration of 100 nM diluted in assay buffer; conditions: known NNMT inhibitors, background section; read-out: IC50 against NNMT; cited from earlier work
# T1 sequence (P40261 1-264): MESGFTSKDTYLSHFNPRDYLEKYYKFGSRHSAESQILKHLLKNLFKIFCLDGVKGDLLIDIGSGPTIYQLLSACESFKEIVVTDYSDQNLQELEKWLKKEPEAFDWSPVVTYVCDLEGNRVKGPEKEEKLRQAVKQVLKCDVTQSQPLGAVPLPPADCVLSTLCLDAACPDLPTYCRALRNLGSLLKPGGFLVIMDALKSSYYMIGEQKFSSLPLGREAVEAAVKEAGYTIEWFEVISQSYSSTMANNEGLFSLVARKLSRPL
# [5] = rapidly degraded by SAHH to adenosine and homocysteine; cited from earlier work
# NNMT [6] = molecular target: T1, NNMT; assay: NNMT assay (HILIC-MS/MS, formation of MNA); conditions: NA 200 μM, SAM 8.5 μM, maximum concentration tested 25 μM
Compound,"% of DMSO control at 100 μM, A549, 24 h [1]","% of DMSO control at 100 μM, A549, 48 h [1]","% of DMSO control at 100 μM, A549, 72 h [1]","% of DMSO control at 100 μM, T24, 24 h [2]","% of DMSO control at 100 μM, T24, 48 h [2]","% of DMSO control at 100 μM, T24, 72 h [2]","% of DMSO control at 100 μM, HSC-2, 24 h [3]","% of DMSO control at 100 μM, HSC-2, 48 h [3]","% of DMSO control at 100 μM, HSC-2, 72 h [3]",also measured
CCOC(=O)[C@@H](N)CCN(C/C=C/c1ccc(C#N)cc1)C[C@H]1O[C@@H](n2cnc3c(N)ncnc32)[C@H](O)[C@@H]1O [GYZ-552],100 % of DMSO control,100 % of DMSO control,100 % of DMSO control,100 % of DMSO control,100 % of DMSO control,100 % of DMSO control,100 % of DMSO control,100 % of DMSO control,73 % of DMSO control,
COc1ccc(C(N)=O)cn1 [JBSNF-000088],,,,,,,,,,body weight (high-fat DIO mice): reduce; glucose tolerance (high-fat DIO mice): normalize; insulin sensitivity (high-fat DIO mice): improve; plasma levels of MNA (high-fat DIO mice): reduce; IC50 (NNMT [4]): 2.4 µM
NC(=O)c1cccc(CCN(CC[C@H](N)C(=O)O)C[C@H]2O[C@@H](n3cnc4c(N)ncnc43)[C@H](O)[C@@H]2O)c1 [MS2756],,,,,,,,,,IC50 (NNMT [4]): 160 µM
CC(=O)Oc1cc(C)cc(C)c1C(C)(C)CC(=O)N[C@@H](CCN(C/C=C/c1ccc(C#N)cc1)C[C@H]1O[C@@H](n2cnc3c(N)ncnc32)[C@H](O)[C@@H]1O)C(=O)O [MH128],100 % of DMSO control,100 % of DMSO control,100 % of DMSO control,100 % of DMSO control,83 % of DMSO control,84 % of DMSO control,100 % of DMSO control,100 % of DMSO control,65 % of DMSO control,
C[n+]1cccc2ccccc21 [Compound 1-MQ],,,,,,,,,,IC50 (NNMT [4]): 12.1 µM
CC(C)OC(=O)[C@@H](N)CCN(C/C=C/c1ccc(C#N)cc1)C[C@H]1O[C@@H](n2cnc3c(N)ncnc32)[C@H](O)[C@@H]1O [GYZ-553],100 % of DMSO control,100 % of DMSO control,100 % of DMSO control,100 % of DMSO control,71 % of DMSO control,100 % of DMSO control,100 % of DMSO control,75 % of DMSO control,56 % of DMSO control,
CCCOC(=O)[C@H](CCN(C/C=C/c1ccc(C#N)cc1)C[C@H]1O[C@@H](n2cnc3c(N)ncnc32)[C@H](O)[C@@H]1O)NC(=O)CC(C)(C)c1c(C)cc(C)cc1OC(C)=O [GYZ-580],83 % of DMSO control,45 % of DMSO control,25 % of DMSO control,72 % of DMSO control,36 % of DMSO control,15 % of DMSO control,59 % of DMSO control,41 % of DMSO control,16 % of DMSO control,
CCOC(=O)[C@H](CCN(C/C=C/c1ccc(C#N)cc1)C[C@H]1O[C@@H](n2cnc3c(N)ncnc32)[C@H](O)[C@@H]1O)NC(=O)CC(C)(C)c1c(C)cc(C)cc1OC(C)=O [NB60],100 % of DMSO control,100 % of DMSO control,76 % of DMSO control,100 % of DMSO control,50 % of DMSO control,29 % of DMSO control,79 % of DMSO control,44 % of DMSO control,26 % of DMSO control,
Cc1cccc2ccc[n+](C)c12 [8-methyl-1-MQ],,,,,,,,,,IC50 (NNMT [4]): 1.8 µM
N#Cc1ccc(/C=C/CN(CC[C@H](N)C(=O)O)C[C@H]2O[C@@H](n3cnc4c(N)ncnc43)[C@H](O)[C@@H]2O)cc1 [GYZ-319],100 % of DMSO control,74 % of DMSO control,66 % of DMSO control,100 % of DMSO control,79 % of DMSO control,86 % of DMSO control,100 % of DMSO control,53 % of DMSO control,49 % of DMSO control,
COC(=O)[C@H](CCN(C/C=C/c1ccc(C#N)cc1)C[C@H]1O[C@@H](n2cnc3c(N)ncnc32)[C@H](O)[C@@H]1O)NC(=O)CC(C)(C)c1c(C)cc(C)cc1OC(C)=O [GYZ-573],100 % of DMSO control,100 % of DMSO control,100 % of DMSO control,100 % of DMSO control,79 % of DMSO control,62 % of DMSO control,83 % of DMSO control,69 % of DMSO control,39 % of DMSO control,
CCCOC(=O)[C@@H](N)CCN(C/C=C/c1ccc(C#N)cc1)C[C@H]1O[C@@H](n2cnc3c(N)ncnc32)[C@H](O)[C@@H]1O [GYZ-579],100 % of DMSO control,100 % of DMSO control,100 % of DMSO control,82 % of DMSO control,71 % of DMSO control,100 % of DMSO control,100 % of DMSO control,57 % of DMSO control,63 % of DMSO control,
COC(=O)[C@@H](N)CCN(C/C=C/c1ccc(C#N)cc1)C[C@H]1O[C@@H](n2cnc3c(N)ncnc32)[C@H](O)[C@@H]1O [GYZ-494],100 % of DMSO control,100 % of DMSO control,88 % of DMSO control,100 % of DMSO control,76 % of DMSO control,100 % of DMSO control,100 % of DMSO control,100 % of DMSO control,87 % of DMSO control,
"Nc1ncnc2c1ncn2[C@@H]1O[C@H](CSCC[C@H](N)C(=O)O)[C@@H](O)[C@H]1O [SAH, S-adenosyl-1-homocysteine]",,,,,,,,,,activity in cellular assays [5]: loses its activity
COC(=O)/C=C/C(=O)NCCN(C/C=C/c1ccc(C#N)cc1)C[C@H]1O[C@@H](n2cnc3c(N)ncnc32)[C@H](O)[C@@H]1O [GYZ-694],,,,,,,,,,"IC50 (NNMT [6]; IC50 values (nM), Table 6, amino acid replacement): > 25000 nM; IC50 (NNMT [6]; IC50 values (μM), Table 6, amino acid replacement): > 25000 nM"
N#Cc1ccc(/C=C/CN(CC[C@H](N)C(=O)O)C[C@H]2O[C@@H](n3cnc4c(N)ncnc43)[C@H](O)[C@@H]2O)cc1F [GYZ-658],,,,,,,,,,"IC50 (NNMT [6]; read-out: IC50 values, Table 1, alkene linked aromatics): < 5 nM"
NC(=O)c1cccc(CCN(CCC[C@H](N)C(=O)O)C[C@H]2O[C@@H](n3cnc4c(N)ncnc43)[C@H](O)[C@@H]2O)c1 [MS2734],,,,,,,,,,IC50 (NNMT [4]): 14 µM
